The target of data set [1] is T1, falcipain-2 (Plasmodium falciparum, UniProt Q8I6U4).
T1 construct: gene FP2A
The experiment in a line: fluorometric Z-LR-AMC kinetic assay with refolded recombinant enzyme; global fit to mixed inhibition model. Format: biochemical.

Data set [2] has as its target T1, falcipain-2. The experiment in a line: fluorometric Z-LR-AMC kinetic assay with refolded recombinant enzyme; global fit to competitive and Morrison equations; reversibility by rapid dilution. Format: biochemical.
The test system of data set [3] is Cc1cc(=O)oc2cc(NC(=O)[C@H](CCCNC(=N)N)NC(=O)[C@H](CC(C)C)NC(=O)OCc3ccccc3)ccc12. As to the kind of experiment: purified protein. The conditions noted are these: accommodates completely within falcipain-2 active site.

T1 sequence (Q8I6U4 244-484): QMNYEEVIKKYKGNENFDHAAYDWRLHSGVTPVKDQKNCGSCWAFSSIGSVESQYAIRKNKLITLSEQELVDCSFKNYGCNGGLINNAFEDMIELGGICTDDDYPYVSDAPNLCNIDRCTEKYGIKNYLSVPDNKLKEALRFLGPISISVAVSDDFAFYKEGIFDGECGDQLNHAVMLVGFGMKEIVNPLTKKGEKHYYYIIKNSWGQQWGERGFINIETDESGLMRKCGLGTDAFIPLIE

One may read the Ki as a dissociation constant, usually derived from enzyme kinetics or from competition with a known ligand. With `C=C1c2cccc(O)c2C(=O)C2=C(O)[C@]3(O)C(=O)C(C(N)=O)=C(O)[C@@H](N(C)C)[C@@H]3[C@@H](O)[C@H]12` [methacycline], the Ki at falcipain-2 [1] is 84.4 ± 6.5 µM.

As to `CC(C)(F)C[C@H](N[C@@H](c1ccc(-c2ccc(S(C)(=O)=O)cc2)cc1)C(F)(F)F)C(=O)NC1(C#N)CC1` [odanacatib], the Ki at falcipain-2 [2] turned out to be 0.0982 ± 0.0102 µM.

What is called Km is the substrate concentration at which the rate is half of its maximum. As for falcipain-2 (Plasmodium falciparum 3D7), the Km in data set [3] was determined as 4.8 µM.

Values taken from paper PMC6691349 (Frontiers in Chemistry, 2019).
